The results in this text go back to patent publication US20130303535A1, “NOVEL BICYCLIC HETEROCYCLIC COMPOUND” (priority 2008, published 2013).

The target of this assay is TTX resistant Na channel of human SNS-expressing cell (SNS) (Homo sapiens, UniProt Q9Y5Y9). The assay can be described thus: cell-based. The settings on record: CHO-K1, compound concentration 12.5 μM; read-out: SNS inhibitory rate (%).
Sequence of TTX resistant Na channel of human SNS-expressing cell (SNS) (Q9Y5Y9 whole entry, looked up): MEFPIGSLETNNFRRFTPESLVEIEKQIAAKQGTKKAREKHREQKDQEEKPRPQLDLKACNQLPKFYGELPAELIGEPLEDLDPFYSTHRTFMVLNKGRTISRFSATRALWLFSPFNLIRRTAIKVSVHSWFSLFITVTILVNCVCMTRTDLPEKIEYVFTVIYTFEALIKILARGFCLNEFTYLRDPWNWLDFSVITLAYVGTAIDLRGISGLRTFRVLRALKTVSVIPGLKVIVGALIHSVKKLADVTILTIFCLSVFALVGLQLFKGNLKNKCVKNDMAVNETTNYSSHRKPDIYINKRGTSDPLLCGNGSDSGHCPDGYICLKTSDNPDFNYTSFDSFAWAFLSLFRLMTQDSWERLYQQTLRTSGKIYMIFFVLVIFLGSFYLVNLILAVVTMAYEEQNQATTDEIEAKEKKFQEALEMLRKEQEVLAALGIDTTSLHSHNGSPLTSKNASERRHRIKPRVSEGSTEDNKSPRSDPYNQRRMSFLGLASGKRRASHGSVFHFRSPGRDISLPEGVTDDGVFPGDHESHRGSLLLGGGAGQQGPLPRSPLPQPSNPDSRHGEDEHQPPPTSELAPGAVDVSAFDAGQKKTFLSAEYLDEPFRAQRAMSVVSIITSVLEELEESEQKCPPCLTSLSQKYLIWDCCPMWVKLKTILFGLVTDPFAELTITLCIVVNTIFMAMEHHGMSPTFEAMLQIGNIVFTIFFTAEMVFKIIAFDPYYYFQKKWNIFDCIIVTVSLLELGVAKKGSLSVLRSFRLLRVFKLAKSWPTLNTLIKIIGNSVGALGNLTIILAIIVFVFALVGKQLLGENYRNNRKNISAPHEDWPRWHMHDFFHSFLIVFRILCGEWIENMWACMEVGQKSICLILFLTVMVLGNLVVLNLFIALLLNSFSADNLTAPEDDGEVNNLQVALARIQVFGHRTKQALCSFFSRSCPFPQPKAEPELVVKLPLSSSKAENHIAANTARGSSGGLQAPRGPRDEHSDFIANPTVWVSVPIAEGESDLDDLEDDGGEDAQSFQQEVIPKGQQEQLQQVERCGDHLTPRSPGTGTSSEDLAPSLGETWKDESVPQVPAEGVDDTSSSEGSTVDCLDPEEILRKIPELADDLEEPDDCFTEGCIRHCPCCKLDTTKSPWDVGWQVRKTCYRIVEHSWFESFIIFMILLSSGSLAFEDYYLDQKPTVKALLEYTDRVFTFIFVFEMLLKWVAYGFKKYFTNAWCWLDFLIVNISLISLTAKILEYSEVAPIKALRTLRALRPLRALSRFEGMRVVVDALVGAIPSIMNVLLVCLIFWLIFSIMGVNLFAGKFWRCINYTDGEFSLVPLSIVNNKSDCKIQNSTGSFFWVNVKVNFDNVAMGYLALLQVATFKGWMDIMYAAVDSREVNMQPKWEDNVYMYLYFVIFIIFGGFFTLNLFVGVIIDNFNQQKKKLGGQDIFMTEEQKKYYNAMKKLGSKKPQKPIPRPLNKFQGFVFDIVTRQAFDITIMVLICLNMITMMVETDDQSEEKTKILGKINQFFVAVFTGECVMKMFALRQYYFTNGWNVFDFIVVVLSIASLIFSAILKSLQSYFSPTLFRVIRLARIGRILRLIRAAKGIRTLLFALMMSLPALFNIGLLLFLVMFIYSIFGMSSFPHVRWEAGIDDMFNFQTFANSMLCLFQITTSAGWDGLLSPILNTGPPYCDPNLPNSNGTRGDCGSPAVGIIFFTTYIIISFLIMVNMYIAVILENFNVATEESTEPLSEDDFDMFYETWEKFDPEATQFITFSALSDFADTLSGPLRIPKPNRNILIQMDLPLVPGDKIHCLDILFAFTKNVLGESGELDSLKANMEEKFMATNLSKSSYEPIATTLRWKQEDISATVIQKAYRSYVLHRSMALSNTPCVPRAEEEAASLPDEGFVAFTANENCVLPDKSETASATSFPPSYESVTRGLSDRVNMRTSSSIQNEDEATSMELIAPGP
With `CCOCCn1c(CN[C@@H](C)C(N)=O)nc2cc(C)c(-c3ccc(F)cc3)cc21` [Example 113, N^2-{[1-(2-ethoxyethyl)-6-(4-fluorophenyl)-5-methyl-1H-benzimidazol-2-yl]methyl}-L-alaninamide], the inhibition at 12.5 µM was determined as 64.7%. For the compound `CCOCCn1c(CN[C@@H](C)C(N)=O)nc2ccc(-c3ccc(F)cc3OC)cc21` [Example 172], the inhibition at 12.5 µM was determined as 50.9%.

`CCOCCn1c(CN[C@@H](C)C(N)=O)nc2ccc(Oc3ccc(F)c(F)c3)cc21` [Example 48]: the inhibition at 12.5 µM is 96.7%. Then `CCOCCn1c(CN[C@@H](C)C(N)=O)nc2ccc(-c3ccccc3)cc21` [Example 69], with 22.3%; and `CCn1c(CN[C@@H](C)C(N)=O)nc2ccc(Oc3ccc(C)cc3)cc21` [Example 96], with 84.8%; and `COCCCn1c(CN[C@@H](C)C(N)=O)nc2ccc(Oc3ccc(OC(F)(F)F)cc3)cc21` [Example 127], with 93.9%. `CC(=O)N1CCC(n2c(CN[C@@H](C)C(N)=O)nc3ccc(Oc4ccc(F)cc4)cc32)CC1` [Example 85, N^2-{[1-(1-acetylpiperidin-4-yl)-6-(4-fluorophenoxy)-1H-benzimidazol-2-yl]methyl}-L-alaninamide]: the inhibition at 12.5 µM is 24.9%.

Take `C[C@H](NCc1nc2ccc(Oc3ccccc3)cc2n1C[C@@H]1CCCO1)C(N)=O` [Example 22]: the inhibition at 12.5 µM was determined as 16.4%. Then `CCOCCn1c(CN[C@@H](C)C(N)=O)nc2c(Cl)cc(-c3ccc(F)cc3)cc21` [Example 112, N^2-{[4-chloro-1-(2-ethoxyethyl)-6-(4-fluorophenyl)-1H-benzimidazol-2-yl]methyl}-L-alaninamide], with 0%. Then `CCOCCn1c(CN[C@@H](C)C(N)=O)nc2ccc(OCc3ccccc3)cc21` [Example 76, N^2-{[6-(benzyloxy)-1-(2-ethoxyethyl)-1H-benzimidazol-2-yl]methyl}-L-alaninamide], with 18.8%; and `CCOCCn1c(CN[C@@H](C)C(N)=O)nc2ccc(-c3c(C)cc(C)cc3C)cc21` [Example 164], with 3.7%; and `CCOCCn1c(CNCC(N)=O)nc2ccc(Oc3ccccc3)cc21` [Example 2, N^2-{[1-(2-ethoxyethyl)-6-phenoxy-1H-benzimidazol-2-yl]methyl}glycinamide], with 8.4%. Regarding `CCOCCn1c(CN[C@@H](C)C(N)=O)nc2cc(Cl)c(-c3ccc(C(F)(F)F)cc3)cc21` [Example 182], the inhibition at 12.5 µM stood at 0%.
